Data taken from US20040197865A1, “Gene expression systems and recombinant cell lines” (3M Innovative Properties Company, priority 2002, published 2004).

target: T1, human TLR6 (Homo sapiens, UniProt Q9Y2C9); assay: Luciferase induction off the IFN-α1 promoter in pIFN-α1-luc/pCI-TLR6 co-transfected Namalwa cells; assay type: cell-based; conditions: IRM compound 10 μM, 18 hours, fold increase compared to DMSO negative control, representative experiment
T1 construct: expressed in transfected cells; host or cells: Namalwa cells (ATCC CRL-1432), co-transfected with pIFN-α1-luc and pCI-TLR6, G418-selected
T1 sequence (Q9Y2C9 32-796): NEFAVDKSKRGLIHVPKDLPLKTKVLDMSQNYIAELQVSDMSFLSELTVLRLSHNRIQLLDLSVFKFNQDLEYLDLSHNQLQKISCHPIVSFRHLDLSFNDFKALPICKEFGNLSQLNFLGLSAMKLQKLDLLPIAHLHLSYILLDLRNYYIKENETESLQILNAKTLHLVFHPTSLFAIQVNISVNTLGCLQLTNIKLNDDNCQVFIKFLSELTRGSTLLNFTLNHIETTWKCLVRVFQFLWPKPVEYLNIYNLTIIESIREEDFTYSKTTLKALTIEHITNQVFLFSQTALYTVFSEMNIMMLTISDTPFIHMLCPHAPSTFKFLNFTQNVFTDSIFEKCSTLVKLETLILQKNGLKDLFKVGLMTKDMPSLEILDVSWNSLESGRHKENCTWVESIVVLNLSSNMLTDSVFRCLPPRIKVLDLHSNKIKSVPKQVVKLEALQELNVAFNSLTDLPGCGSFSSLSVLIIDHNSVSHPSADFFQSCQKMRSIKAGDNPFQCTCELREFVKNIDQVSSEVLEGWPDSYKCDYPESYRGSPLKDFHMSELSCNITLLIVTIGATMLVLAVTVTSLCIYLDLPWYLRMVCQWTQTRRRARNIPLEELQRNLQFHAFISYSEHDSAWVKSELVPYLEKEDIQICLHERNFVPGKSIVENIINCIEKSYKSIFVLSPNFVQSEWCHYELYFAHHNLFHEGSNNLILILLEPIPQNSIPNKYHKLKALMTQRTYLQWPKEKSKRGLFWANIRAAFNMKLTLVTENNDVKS
T1 sequence (O60603 19-784 partner limits assumed): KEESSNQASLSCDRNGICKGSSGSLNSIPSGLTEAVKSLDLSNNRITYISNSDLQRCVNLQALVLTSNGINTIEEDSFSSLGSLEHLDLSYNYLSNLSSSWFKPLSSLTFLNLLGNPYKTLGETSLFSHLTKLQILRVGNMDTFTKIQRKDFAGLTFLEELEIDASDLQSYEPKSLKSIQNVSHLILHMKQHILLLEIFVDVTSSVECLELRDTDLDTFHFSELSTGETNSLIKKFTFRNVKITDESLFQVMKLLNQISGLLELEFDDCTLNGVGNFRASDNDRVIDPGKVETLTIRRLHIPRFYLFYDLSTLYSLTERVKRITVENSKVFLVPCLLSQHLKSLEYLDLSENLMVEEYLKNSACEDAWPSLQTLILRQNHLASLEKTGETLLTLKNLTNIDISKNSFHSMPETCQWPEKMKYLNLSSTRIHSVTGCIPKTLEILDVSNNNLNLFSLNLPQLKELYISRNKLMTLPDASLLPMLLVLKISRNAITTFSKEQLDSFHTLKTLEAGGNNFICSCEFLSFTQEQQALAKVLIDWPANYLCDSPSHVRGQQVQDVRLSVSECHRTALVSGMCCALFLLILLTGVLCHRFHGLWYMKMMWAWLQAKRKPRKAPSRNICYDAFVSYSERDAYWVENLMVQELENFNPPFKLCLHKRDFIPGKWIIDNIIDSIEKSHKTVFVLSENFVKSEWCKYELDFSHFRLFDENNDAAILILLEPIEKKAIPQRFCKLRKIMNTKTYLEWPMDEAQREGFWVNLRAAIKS
Excerpt: The vector pIFN-α1-luc was constructed by inserting BglII sites at both ends of the human IFN-α1 promoter (SEQ ID NO:21). The BglII sites were inserted into the IFN-α1 promoter and the sequence was amplified using the primer pair of SEQ ID NO:22 and SEQ ID NO:23. The amplified IFN-α1 promoter was cloned into the pGL3-Enhancing vector (Promega Corp., Madison, Wis.) at its BglII site.
The vector pCI-TLR6 was constructed by inserting SEQ ID NO:11 (GenBank Accession No. NM 006068), which includes the human TLR6 coding sequence, into the pCI-neo mammalian expression vector (Promega Corp.) at the vector's NheI and MluI restriction sites.
Burkitt's Lymphoma lymphoblastoid Namalwa cells (ATCC Accession No. CRL-1432) were grown by incubation in culture medium overnight. Cells were harvested by centrifugation in a tabletop centrifuge (1200 RPM for 5 minutes), and then resuspended in phosphate buffered sucrose to a concentration of 1.3×10^7 cells per milliliter.
For each transfection, a 750 μL aliquot of the cell suspension was placed in an electroporation cuvette with 4 mm gaps. 10 μg of the pIFN-α1-luc vector and 10 μg of the pCI-TLR6 vector were added to the electroporation cuvette. The cell and vector mixtures were incubated at room temperature for 5 minutes. The cells were electroporated using a BioRad Gene Pulser (BioRad Laboratories, Hercules, Calif.) set to at 500 μF capacitance and […], then incubated at room temperature for 5 minutes.
The electroporated cells were suspended in 10 mLs of culture medium and incubated overnight. Dead cells and debris were removed after 24 hours using a MACS Dead Cell Removal kit (Miltenyi Biotec, Auburn, Calif.). Cells were resuspended in 10 mLs of culture medium and incubated for an additional 24 hours.
Transfected cells were selected by adding G418 (Promega Corp., Madison, Wis.) to a final concentration of 1 mg/mL and incubating the cells for seven days.
The selected transfected cells were counted and resuspended to a concentration of 1×10^6 cell per mL in culture medium. 100 μl aliquots of cells were placed in the wells of a white-walled, white-bottomed 96-well plate (Corning, Inc. Corning, N.Y.). 1.0 μL of an IRM compound from Table 1 (prepared at 1 mM in 100% DMSO) was added to some cell aliquots so that the final concentration of IRM compound was 10 μM. As a positive control, some cell aliquots were incubated with Sendai virus instead of IRM compound. As a negative control, some cell aliquots were incubated with DMSO without IRM compound. In all cases, the cells were incubated for 18 hours.
The plates were equilibrated to room temperature before 1 volume of reconstituted LucLight Plus (Packard Instruments, Meriden, Conn.) was added to each aliquot of cells. Each well of the plate was read on an LJL Analyst (LJL Biosystems, Inc., Sunnyvale, Calif.) set with a 5 minute dark adapt. The data are expressed as the fold increase in luciferase induction off of the IFN-α1 promoter in cell aliquots incubated with the indicated stimulant compared to the negative control in which the cell aliquots were incubated with only DMSO.

Structure (SMILES) | Fold Increase in Luciferase Induction
CCCCc1nc2c(N)nc3c(c2n1CC(C)C)NCCC3 [IRM6, 2-butyl-6,7,8,9-tetrahydro-1-(2-methylpropyl)-1H-imidazo[4,5-c][1,5]naphthyridin-4-amine] | 2.9
CCCCc1nc2c(N)nc3ccccc3c2n1CCCCNS(C)(=O)=O [IRM3, N-[4-(4-amino-2-butyl-1H-imidazo[4,5-c]quinolin-1-yl)butyl]methanesulfonamide] | 2.6
CCOCc1nc2c(N)nc3c(c2n1CC(C)(C)O)CCCC3 [IRM1, 4-amino-2-ethoxymethyl-α,α-dimethyl-6,7,8,9-tetrahydro-1H-imidazo[4,5-c]quinoline-1-ethanol] | 3.6
Cc1nc2c(N)nc3ccccc3c2n1CC(C)(C)O [IRM2, 4-amino-α,α,2-trimethyl-1H-imidazo[4,5-c]quinoline-1-ethanol] | 2.7
COCCc1nc2c(N)nc3ccccc3c2n1CCCCNC(=O)c1ccc(-n2cccc2)nc1 [IRM7, N^3-{4-[4-amino-2-(2-methoxyethyl)-1H-imidazo[4,5-c]quinolin-1-yl]butyl}-6-(1H-1-pyrrolyl)nicotinamide] | 3.2
Nc1nc2ccccc2c2c1ncn2CCOCCCc1cccnc1 [IRM4, 1-{2-[3-(3-pyridyl)propoxy]ethyl}-1H-imidazo[4,5-c]quinolin-4-amine] | 4.0
CCCCc1nc2c(N)nc3cccnc3c2n1CC(C)C [IRM5, 2-butyl-1-(2-methylpropyl)-1H-imidazo[4,5-c][1,5]naphthyridin-4-amine] | 3.2
CCc1nc2c(N)nc3ccccc3c2n1CCCCCS(C)(=O)=O [IRM8, 2-ethyl-1-[5-(methylsulfonyl)pentyl]-1H-imidazo[4,5-c]quinolin-4-amine] | 2.3
